Source: patent US5378696A, “Rapamycin esters” (American Home Products Corporation, priority 1993, dated 1995)
“Also recorded” adds a separate entry of the source.

Tests used:
[1] = in vivo; cited from earlier work
[2] = tested on: mixed lymphocyte reaction, popliteal lymph node; assay: popliteal lymph node (PLN) test procedure, in vivo mixed lymphocyte reaction; parameters: species or system mouse (BALB/c donors, C3H recipients); details: p.o. daily Day 0 to Day 4, carboxymethyl cellulose vehicle; rapamycin 1.0
Description: (§1) Immunosuppressive activity was evaluated in an in vitro standard pharmacological test procedure to measure lymphocyte proliferation (LAF) and in two in vivo standard pharmacological test procedures. The first in vivo procedure was a popliteal lymph node (PLN) test procedure which measured the effect of compounds of this invention on a mixed lymphocyte reaction and the second in vivo procedure evaluated the survival time of a pinch skin graft.
A mixed lymphocyte reaction (MLR) occurs when lymphoid cells from genetically distinct animals are combined in tissue culture. Each stimulates the other to undergo blast transformation which results in increased DNA synthesis that can be quantified by the incorporation of tritiated thymidine. Since stimulating a MLR is a function of disparity at Major Histocompatibility antigens, an in vivo popliteal lymph node (PLN) test procedure closely correlates to host vs. graft disease. Briefly, irradiated spleen cells from BALB/c donors are injected into the right hind foot pad of recipient C3H mice. The drug is given daily, p.o. from Day 0 to Day 4. On Day 3 and Day 4, tritiated thymidine is given i.p., b.i.d. On Day 5, the hind popliteal lymph nodes are removed and dissolved, and radioactivity counted. […] Percent suppression is calculated using the non-drug treated animals as allogenic control.

[3] = tested on: transplant rejection; details: cited from earlier work
[4] = tested on: Candida albicans; details: in vitro and in vivo; cited from earlier work
[5] = tested on: 5 strains of Candida albicans; assay: antifungal plate test procedure, 5 strains (overall); type: cell-based; details: not evaluated; considered because of structural similarity
Description: The following represents the typical procedure used. Compound to be tested was placed on sterile dried 1/4" plate disks, and allowed to dry. Agar plates were seeded with fungi and allowed to solidify. The impregnated disks were placed on the seeded Agar surface and incubated for the time required for the particular culture. Results are expressed in MIC (μg/ml) to inhibit growth.

[6] = tested on: lymphocyte proliferation, cells from the thymus of normal BALB/c mice (PHA and IL-1); assay: comitogen-induced thymocyte proliferation procedure (LAF); type: cell-based
Description: as §1
Briefly, cells from the thymus of normal BALB/c mice are cultured for 72 hours with PHA and IL-1 and pulsed with tritiated thymidine during the last six hours. […] Cells are harvested and incorporated; radioactivity is determined. inhibition of lymphoproliferation is assessed in percent change in counts per minute from non-drug treated controls. The results are expressed by the following ratio: [formula]

[7] = tested on: pinch skin graft; assay: survival time of pinch skin graft; type: in vivo, mouse (male DBA/2 donors, male BALB/c recipients); details: intraperitoneally; mean graft survival time ± S.D.
Description: as §1
The second in vivo test procedure is designed to determine the survival time of pinch skin graft from male DBA/2 donors transplanted to male BALB/c recipients. The method is adapted from Billingham R. E. and Medawar P. B., J. Exp. Biol. 28:385-402, (1951). Briefly, a pinch skin graft from the donor is grafted on the dorsum of the recipient as a homograft, and an autograft is used as control in the same region. […] Untreated recipients serve as rejection control. The graft is monitored daily and observations are recorded until the graft becomes dry and forms a blackened scab. This is considered as the rejection day. The mean graft survival time (number of days±S.D.) of the drug treatment group is compared with the control group.

In the case of CO[C@H]1C[C@@H]2CC[C@@H](C)[C@@](O)(O2)C(=O)C(=O)N2CCCC[C@H]2C(=O)O[C@H]([C@H](C)C[C@@H]2CC[C@@H](O)[C@H](OC)C2)CC(=O)[C@H](C)/C=C(\C)[C@@H](O)[C@@H](OC)C(=O)[C@H](C)C[C@H](C)/C=C/C=C/C=C/1C [Rapamycin], the “usefulness in preventing or treating disease” value [1] is given as “systemic lupus erythematosus; also recorded: pulmonary inflammation; also recorded: insulin dependent diabetes mellitus; also recorded: smooth muscle cell proliferation and intimal thickening following vascular injury; also recorded: ocular inflammation”, the “PLN (ratio)” value [2] is given as 1.0 and the immunosuppressive effect [3] is given as “immunosuppressive effects”. The antifungal activity [4] was “found to have antifungal activity, particularly against Candida albicans, both in vitro and in vivo”.
For COC(=O)CCC(=O)O[C@@H]1CC[C@@H](C[C@@H](C)[C@@H]2CC(=O)[C@H](C)/C=C(\C)[C@@H](O)[C@@H](OC)C(=O)[C@H](C)C[C@H](C)/C=C/C=C/C=C(\C)[C@@H](OC)C[C@@H]3CC[C@@H](C)[C@@](O)(O3)C(=O)C(=O)N3CCCC[C@H]3C(=O)O2)C[C@H]1OC [Example 12, Rapamycin-42-monomethylsuccinate], the antifungal activity [5] was “considered to have antifungal activity”, the inhibition at 0.1 µM ([6]; Mus musculus, Lymphocyte, percent inhibition at 100 nM) was 97% and the “Skin Graft (days + SD), mean graft survival time” value [7] was 10.8 ± 0.4 days.
With CO[C@H]1C[C@@H]2CC[C@@H](C)[C@@](O)(O2)C(=O)C(=O)N2CCCC[C@H]2C(=O)O[C@H]([C@H](C)C[C@@H]2CC[C@@H](OC(=O)CCC(=O)OCc3ccc(C(F)(F)F)cc3)[C@H](OC)C2)CC(=O)[C@H](C)/C=C(\C)[C@@H](O)[C@@H](OC)C(=O)[C@H](C)C[C@H](C)/C=C/C=C/C=C/1C [Example 13, Rapamycin-42-(4-trifluoromethylbenzyl)succinate] the antifungal activity [5] was “considered to have antifungal activity”, the “LAF (ratio)” value ([6]; ratio, thymocytes 72 hours with PHA and IL-1, rapamycin 1.0) was 2.11 and the “Skin Graft (days + SD), mean graft survival time” value [7] was 10.6 ± 0.9 days.
